Measurements from patent US9469615B2, “Quinoxalines and AZA-quinoxalines as CRTH2 receptor modulators” (Merck Sharp & Dohme Corp., priority 2010, dated 2016).
One block for each molecule: values may come before it.

Molecular target: T1, hCRTH2 (Homo sapiens, UniProt Q9Y5Y4)
T1 construct: expressed in transfected cells; host or cells: HEK (human embryonic kidney) cells expressing hCRTH2; membrane preparation
T1 sequence (Q9Y5Y4 1-395): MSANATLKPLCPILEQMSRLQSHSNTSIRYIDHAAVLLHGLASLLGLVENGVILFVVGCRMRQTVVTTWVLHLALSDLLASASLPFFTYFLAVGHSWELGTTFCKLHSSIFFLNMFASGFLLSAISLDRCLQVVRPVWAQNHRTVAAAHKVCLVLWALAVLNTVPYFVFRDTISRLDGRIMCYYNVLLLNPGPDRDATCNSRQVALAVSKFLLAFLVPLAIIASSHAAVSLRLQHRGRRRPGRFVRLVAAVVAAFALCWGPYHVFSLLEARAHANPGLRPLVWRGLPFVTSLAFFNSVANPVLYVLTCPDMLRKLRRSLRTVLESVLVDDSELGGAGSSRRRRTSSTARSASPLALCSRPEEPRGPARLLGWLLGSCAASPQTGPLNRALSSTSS
Assay: Radioligand binding assay ([3H]PGD2 competition, HEK-hCRTH2 membranes)
How it was run: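 Competition binding with 3.0 nM [3H]PGD2 and 8-20 μg HEK-hCRTH2 membrane protein in 50 mM Tris-HCl pH 7.4, 1 mM EDTA, 2 mM MnCl2, 1% Me2SO, 60 min at room temperature. Nonspecific binding defined with 10 μM PGD2; bound radioactivity counted after filtration.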

Structure (SMILES): O=C(O)CCCCc1nc2cc(C(=O)N3CCC4(CC3)CNC(=O)c3ccccc34)ccc2nc1-c1ccc(Cl)cc1 [compound 267, 5-(3-(4-chlorophenyl)-7-(1-oxo-2,3-dihydro-1H-spiro[isoquinoline-4,4′-piperidin]-1′-ylcarbonyl)quinoxalin-2-yl)pentanoic acid]
Ki ([3H]PGD2 competition, Table B): 2.1 to 20 nM

Structure (SMILES): O=C(O)CCCCc1nc2cc(C(=O)NC3CCC(=O)Nc4ccccc43)ccc2nc1-c1ccc(Cl)cc1 (centres unmarked) [compound 268, 5-(3-(4-chlorophenyl)-7-((2-oxo-2,3,4,5-tetrahydro-1H-benzo[b]azepin-5-yl)carbamoyl)quinoxalin-2-yl)pentanoic acid]
Ki ([3H]PGD2 competition, Table B): 2.1 to 20 nM

Structure (SMILES): O=C(O)Cc1cccc(CCCc2nc3cc(C(=O)N[C@@H]4CCCc5ccccc54)ccc3nc2-c2ccc(F)cc2)c1 [compound 269, (R)-2-(3-(3-(3-(4-fluorophenyl)-7-((1,2,3,4-tetrahydronaphthalen-1-yl)carbamoyl)quinoxalin-2-yl)propyl)phenyl)acetic acid]
Ki ([3H]PGD2 competition, Table B): 201 to 700 nM

Structure (SMILES): O=C(O)Cc1cccc(CCCc2nc3cc(C(=O)N[C@H]4CCCc5ccccc54)ccc3nc2-c2ccc(F)cc2)c1 [compound 270, (S)-2-(3-(3-(3-(4-fluorophenyl)-7-((1,2,3,4-tetrahydronaphthalen-1-yl)carbamoyl)quinoxalin-2-yl)propyl)phenyl)acetic acid]
Ki ([3H]PGD2 competition, Table B): 201 to 700 nM

Structure (SMILES): C[C@@H](NC(=O)c1ccc2nc(-c3ccc(F)cc3)c(CCCc3cccc(CC(=O)O)c3)nc2c1)c1ccc(F)cc1 [compound 271]
Ki ([3H]PGD2 competition, Table B): 201 to 700 nM

Structure (SMILES): O=C(O)Cc1cccc(CCCc2nc3cc(C(=O)N4CCN(c5ccccc5)CC4)ccc3nc2-c2ccc(F)cc2)c1 [compound 272, 2-(3-(3-(3-(4-fluorophenyl)-7-(4-phenylpiperazine-1-carbonyl)quinoxalin-2-yl)propyl)phenyl)acetic acid]
Ki ([3H]PGD2 competition, Table B): 20.1 to 200 nM

Structure (SMILES): O=C(O)Cc1cccc(CCCc2nc3cc(C(=O)N4CC(c5cccc(F)c5)C4)ccc3nc2-c2ccc(F)cc2)c1 [compound 273, 2-(3-(3-(3-(4-fluorophenyl)-7-(3-(3-fluorophenyl)azetidine-1-carbonyl)quinoxalin-2-yl)propyl)phenyl)acetic acid]
Ki ([3H]PGD2 competition, Table B): 20.1 to 200 nM

Structure (SMILES): CN(Cc1ccc(F)cc1)C(=O)c1ccc2nc(-c3ccc(F)cc3)c(CCCc3cccc(CC(=O)O)c3)nc2c1 [compound 275, 2-(3-(3-(7-((4-fluorobenzyl)(methyl)carbamoyl)-3-(4-fluorophenyl)quinoxalin-2-yl)propyl)phenyl)acetic acid]
Ki ([3H]PGD2 competition, Table B): 20.1 to 200 nM

Structure (SMILES): C[C@H](CCc1nc2cc(C(=O)N[C@H](C)c3ccc(F)cc3)ccc2nc1-c1ccccc1)CC(=O)O [compound 278, (R)-5-(7-(((R)-1-(4-fluorophenyl)ethyl)carbamoyl)-3-phenylquinoxalin-2-yl)-3-methylpentanoic acid]
Ki ([3H]PGD2 competition, Table B): 20.1 to 200 nM

Structure (SMILES): C[C@H](CCc1nc2cc(C(=O)N[C@@H](C)c3ccc(F)cc3)ccc2nc1-c1ccccc1)CC(=O)O [compound 279, (R)-5-(7-(((S)-1-(4-fluorophenyl)ethyl)carbamoyl)-3-phenylquinoxalin-2-yl)-3-methylpentanoic acid]
Ki ([3H]PGD2 competition, Table B): 20.1 to 200 nM

Structure (SMILES): C[C@H](CCc1nc2cc(C(=O)N(C)Cc3ccc(F)cc3)ccc2nc1-c1ccccc1)CC(=O)O [compound 283, (R)-5-(7-((4-fluorobenzyl)(methyl)carbamoyl)-3-phenylquinoxalin-2-yl)-3-methylpentanoic acid]
Ki ([3H]PGD2 competition, Table B): 201 to 700 nM

Structure (SMILES): O=C(O)CCCCc1nc2cc(C(=O)NC3CC(=O)Nc4ccc(F)cc43)ccc2nc1-c1ccccc1 (centres unmarked) [compound 284, 5-(7-((6-fluoro-2-oxo-1,2,3,4-tetrahydroquinolin-4-yl)carbamoyl)-3-phenylquinoxalin-2-yl)pentanoic acid]
Ki ([3H]PGD2 competition, Table B): 2.1 to 20 nM

Structure (SMILES): Cc1ccc([C@@]23C[C@@H]2CN(C(=O)c2ccc4nc(-c5ccc(Cl)cc5)c(CCCCC(=O)O)nc4c2)C3)cc1 [compound 285, 5-(3-(4-chlorophenyl)-7-((1R,5S)-1-(p-tolyl)-3 - azabicyclo[3.1.0]hexane-3-carbonyl)quinoxalin-2-yl)pentanoic acid]
Ki ([3H]PGD2 competition, Table B): 2.1 to 20 nM

Structure (SMILES): C[C@@H](CCc1nc2cc(C(=O)N[C@H](C)c3ccc(F)cc3)ccc2nc1-c1ccccc1)CC(=O)O [compound 287, (S)-5-(7-(((R)-1-(4-fluorophenyl)ethyl)carbamoyl)-3-phenylquinoxalin-2-yl)-3-methylpentanoic acid]
Ki ([3H]PGD2 competition, Table B): 20.1 to 200 nM

Structure (SMILES): C[C@@H](CCc1nc2cc(C(=O)N[C@@H](C)c3ccc(F)cc3)ccc2nc1-c1ccccc1)CC(=O)O [compound 288, (S)-5-(7-(((S)-1-(4-fluorophenyl)ethyl)carbamoyl)-3-3-phenylquinoxalin-2-yl)-3-methylpentanoic acid]
Ki ([3H]PGD2 competition, Table B): 20.1 to 200 nM

Structure (SMILES): C[C@@H](CCc1nc2cc(C(=O)N(C)Cc3ccc(F)cc3)ccc2nc1-c1ccccc1)CC(=O)O [compound 292]
Ki ([3H]PGD2 binding, values in text): 39.2 nM
Ki ([3H]PGD2 competition, Table B): 20.1 to 200 nM

Structure (SMILES): O=C(O)CCCCc1nc2cc(C(=O)NC3CCCOc4ccccc43)ccc2nc1-c1ccccc1 (centres unmarked) [compound 294, 5-(3-phenyl-7-((2,3,4,5-tetrahydrobenzo[b]oxepin-5-yl)carbamoyl)quinoxalin-2-yl)pentanoic acid]
Ki ([3H]PGD2 competition, Table B): 2.1 to 20 nM

Structure (SMILES): CC1(C)CC(NC(=O)c2ccc3nc(-c4ccccc4)c(CCCCC(=O)O)nc3c2)c2ccccc2O1 (centres unmarked) [compound 295, 5-(7((2,2-dimethylchroman-4-yl)carbamoyl)-3-phenylquinoxalin-2-yl)pentanoic acid]
Ki ([3H]PGD2 competition, Table B): 2.1 to 20 nM

Structure (SMILES): CC1(C)CCC(NC(=O)c2ccc3nc(-c4ccccc4)c(CCCCC(=O)O)nc3c2)c2ccccc21 (centres unmarked) [compound 296, 5-(7-((4,4-dimethyl-1,2,3,4-tetrahydronaphthalen-1-yl)carbamoyl)-3-phenylquinoxalin-2-yl)pentanoic acid]
Ki ([3H]PGD2 competition, Table B): 2.1 to 20 nM

Structure (SMILES): O=C(O)CCCCc1nc2cc(C(=O)N3CCC4(CCCc5ccccc54)C3)ccc2nc1-c1ccccc1 (centres unmarked) [compound 297, 5-(7-(3,4-dihydro-2H-spiro[naphthalene-1,3′-pyrrolidin]-1′-ylcarbonyl)-3-phenylquinoxalin-2-yl)pentanoic acid]
Ki ([3H]PGD2 competition, Table B): 2.1 to 20 nM

Other lines, results leading:

Ki ([3H]PGD2 competition, Table B): 2.1 to 20 nM
Structure (SMILES): O=C(O)Cc1cccc(CCCc2nc3cc(C(=O)N4CC[C@@H](c5ccccc5)C4)ccc3nc2-c2ccc(F)cc2)c1 [compound 274, (S)-2-(3-(3-(3-(4-fluorophenyl)-7-(3-phenylpyrrolidine-1-carbonyl)quinoxalin-2-yl)propyl)phenyl)acetic acid]

Ki ([3H]PGD2 competition, Table B): 2.1 to 20 nM
Structure (SMILES): C[C@H](CCc1nc2cc(C(=O)N[C@@H]3CCCc4ccccc43)ccc2nc1-c1ccccc1)CC(=O)O [compound 276, (R)-3-methyl-5-(3-phenyl-7-(((R)-1,2,3,4-tetrahydronaphthalen-1-yl)carbamoyl)quinoxalin-2-yl)pentanoic acid]

Ki ([3H]PGD2 competition, Table B): 2.1 to 20 nM
Structure (SMILES): C[C@H](CCc1nc2cc(C(=O)N[C@H]3CCCc4ccccc43)ccc2nc1-c1ccccc1)CC(=O)O [compound 277, (R)-3-methyl-5-(3-phenyl-7-(((S)-1,2,3,4-tetrahydronaphthalen-1-yl)carbamoyl)quinoxalin-2-yl)pentanoic acid]

Ki ([3H]PGD2 competition, Table B): 701 to 2300 nM
Structure (SMILES): C[C@H](CCc1nc2cc(C(=O)N3CCN(c4ccccc4)CC3)ccc2nc1-c1ccccc1)CC(=O)O [compound 280, (R)-3-methyl-5-(3-phenyl-7-(4-phenylpiperazine-1-carbonyl)quinoxalin-2-yl)pentanoic acid]

Ki ([3H]PGD2 competition, Table B): 20.1 to 200 nM
Structure (SMILES): C[C@H](CCc1nc2cc(C(=O)N3CC(c4cccc(F)c4)C3)ccc2nc1-c1ccccc1)CC(=O)O [compound 281, (R)-5-(7-(3-(3-fluorophenyl)azetidine-1-carbonyl)-3-phenylquinoxalin-2-yl)-3-methylpentanoic acid]

Ki ([3H]PGD2 competition, Table B): 201 to 700 nM
Structure (SMILES): C[C@H](CCc1nc2cc(C(=O)N3CC[C@@H](c4ccccc4)C3)ccc2nc1-c1ccccc1)CC(=O)O [compound 282, (R)-3-methyl-5-(3-phenyl-7-((S)-3-phenylpyrrolidine-1-carbonyl)quinoxalin-2-yl)pentannic acid]

Ki ([3H]PGD2 competition, Table B): 20.1 to 200 nM
Structure (SMILES): C[C@@H](CCc1nc2cc(C(=O)N[C@H]3CCCc4ccccc43)ccc2nc1-c1ccccc1)CC(=O)O [compound 286, (S)-3-methyl-5-(3-phenyl-7-(((S)-1,2,3,4-tetrahydronaphthalen-1-yl)carbamoyl)quinoxalin-2-yl)pentanoic acid]

Ki ([3H]PGD2 competition, Table B): 20.1 to 200 nM
Structure (SMILES): C[C@@H](CCc1nc2cc(C(=O)N3CCN(c4ccccc4)CC3)ccc2nc1-c1ccccc1)CC(=O)O [compound 289, (S)-3-methyl-5-(3-phenyl-7-(4-phenylpiperazine-1-carbonyl)quinoxalin-2-yl)pentanoic acid]

Ki ([3H]PGD2 competition, Table B): 2.1 to 20 nM
Structure (SMILES): C[C@@H](CCc1nc2cc(C(=O)N3CC(c4cccc(F)c4)C3)ccc2nc1-c1ccccc1)CC(=O)O [compound 290, (S)-5-(7-(3-(3-fluorophenyl)azetidine-1-carbonyl)-3-phenylquinoxalin-2-yl)-3-methylpentanoic acid]

Ki ([3H]PGD2 competition, Table B): 2.1 to 20 nM
Structure (SMILES): C[C@@H](CCc1nc2cc(C(=O)N3CC[C@@H](c4ccccc4)C3)ccc2nc1-c1ccccc1)CC(=O)O [compound 291, (S)-3-methyl-5-(3-phenyl-7-((S)-3-phenylpyrrolidine-1-carbonyl)quinoxalin-2-yl)pentanoic acid]

Ki ([3H]PGD2 competition, Table B): 2.1 to 20 nM
Structure (SMILES): C[C@@H](CCc1nc2cc(C(=O)N[C@@H]3CCCc4ccccc43)ccc2nc1-c1ccccc1)CC(=O)O [compound 293, (S)-3-methyl-S-(3-phenyl-7-(((R)-1,2,3,4-tetrahydronaphthalen-1-yl)carbamoyl)quinoxalin-2-yl)pentanoic acid]
